In PMC11472388 (ACS Medicinal Chemistry Letters, 2024):
Several values for one entry are separate records, joined by “and”; a condition that tells them apart may be missing. Equal values may be shown once. Read-outs that look alike come from different tables or passages of the source. Where a SMILES comes first, the peptide text is derived from it. Bridges are numbered along the chain shown (N, C = ends). [ ]: non-standard residue; d: D form. The star is where a group is joined. βGlc = OC[C@H]1O[C@@H](*)[C@H](O)[C@@H](O)[C@@H]1O; 1Nal = N[C@@H](Cc1cccc2ccccc12)C(=O)O

How the values were obtained:
[1] = In vivo microdialysis and plasma pharmacokinetics (BBB penetration); set-up: species or system Sprague-Dawley rats; conditions: rat, 10 mg/kg i.v.; for AUC Brain (estimated CSF, brain dialysate): striatal dialysate 0-60 min
Protocol: Following intravenous bolus injection, AUC, Cmax, half-life, and Tmax were determined in plasma and CSF dialysate, and the CSF/plasma ratios for AUC of the analogs were compared (Table 1).
Blood Brain Barrier Penetration and Pharmacokinetics
Animals: Male, Sprague-Dawley rats (225-325, n = 3/group; Envigo RMC Inc., Indianapolis, IN were used for in vivo microdialysis and pharmacokinetic experiments. Rats were co-housed in a temperature/humidity-controlled room on a 12-h reversed light/dark cycle. Food and water were available ad libitum. Animal studies were approved by The University of Arizona Institutional Animal Care and Use Committee, in accordance with NIH’s Care and Use of Laboratory Animals […]
Carotid Artery Catheterization and Microdialysis Surgery: Both procedures were performed in the same anesthetic event in accordance with our previous studies, with one exception, the left carotid artery was catheterized in each animal.2
In Vivo Microdialysis and Plasma Sampling: Blood-brain-barrier penetration and […]
same time to minimize injection site variations and individual differences between the animals. […]
following changes (Figure S3). 2, 4 The microdialysis probe (FZ-8-04; Amuza, San Diego, CA) was inserted into the striatum and perfused with aCSF (15 mM Tris HCl, 10 mM Tris base, 126 mM NaCl, 2.5 KCl, 1.2 mM NaH 2PO4, 2mM Na 2SO4, and adjusted pH to 7.4) at a rate of 0.5 µL/minute using one channel of a dual syringe pump (Fusion 101A Syringe Pump; Chemyx, Stafford, TX).
Boise, ID) and injected via the lateral tail vein. Brain dialysate samples used to estimate CSF were collected over 10 minutes, where t = 0 corresponds to the injection: t = -10, 0, 10, 20, 30, 40, 50, and 60 minutes. Blood was sampled to correspond with the median timepoint of the dialysate fraction, where t = 0 corresponds to the injection: t = -5, 0, 1, 5, 15, 25, 35, 45, and 55 […]
minutes. To separate plasma from whole blood, each sample was collected in ethylenediamine tetraacetic acid capillary tubes (CT-CB300-K2EDTA; Sarstedt, Nümbrecht, Germany), inverted repeatedly for 30 seconds, and centrifuged for 10 minutes at 2,000 x g in a refrigerated centrifuge (Galaxy Mini Centrifuge; VWR, Radnor, PA).
Brain dialysate (5 μL) and plasma (5 μL) were mixed with 5 μL and 50 μL of preservation solution […]
Enkephalin), respectively, and then vortexed for 10 seconds. 90 μL of cold acetone and deionized water (75:25, v/v) was added to precipitate dialysate and plasma proteins. After vortexing for 30 seconds, samples were centrifuged at 13,000 rpm for 15 minutes at 4 °C. The supernatant was evaporated using a Savant Speedvac concentrator. Dialysate and plasma samples were reconstituted in a 20 μL and 200 μL diluent (2% acetonitrile and 0.1% formic acid in deionized water), respectively. Samples were injected into the ThermoFisher UHPLC-MS/MS TSQ system.
Chromatographic separation was achieved on an ACQUITY UPLC HSS T3 C18 Column (100 Å, 1.8 µm, 2.1 X 100 mm) and VanGuard pre-column (HSS T3 1.8 μm, 2.1 X 5 mm) with the temperature set at 20 ℃. A water-acetonitrile gradient with a 0.3 mL/minute flow rate was used.
The mobile phases used were A: 0.1% v/v formic acid in deionized water and B: 0.1% v/v formic acid in acetonitrile. An injection volume of 8 µL was used. Detection was achieved using a Thermo Fisher TSQ Fortis Plus mass spectrometry instrument with an H-ESI ion source. The instrument was operated in a positive ion mode. The MRM mode was used for quantification using target […]
protonated ZH853 (MW 809.92 gmol-1). Concentrations were calculated using the response factor-concentration plot. Pharmacokinetic parameters, including the area under the curve (AUC), maximum plasma concentration (Cmax), the time to reach Cmax (Tmax), and half-life (t1/2), were […]
(§1) using the microdialysis probe recovery rate. All data are presented as mean ± SEM.

mu opioid receptor (MOR) = molecular target: T1, mu opioid receptor (MOR) (Homo sapiens, UniProt P35372); assay: Opioid receptor binding (NIMH PDSP), MOR
T1 construct: NIMH Psychoactive Drug Screening Program (PDSP)
Description: (§2) Ki determinations at the 3 canonical opioid receptors, MOR, DOR. and KOR. were generously performed by the NIMH Psychoactive Drug Screening Program (PDSP), directed by Bryan L. Roth at the University of North Carolina at Chapel Hill and Project Officer Jamie Driscoll at NIMH, Bethesda. MD.

[2] = molecular target: T2, kappa opioid receptor (KOR) (Homo sapiens, UniProt P41145); assay: Opioid receptor binding (NIMH PDSP), KOR
T2 construct: NIMH Psychoactive Drug Screening Program (PDSP)
Description: as §2

[3] = molecular target: T3, delta opioid receptor (DOR) (Homo sapiens, UniProt P41143); assay: Opioid receptor binding (NIMH PDSP), DOR
T3 construct: NIMH Psychoactive Drug Screening Program (PDSP)
Description: as §2

MOR = molecular target: T4, MOR (Homo sapiens, UniProt P35372); assay: Gi signaling (inhibition of cAMP) in opioid-receptor-expressing HEK cells, MOR; format: cell-based
T4 construct: host or cells: HEK cells expressing the receptor (from the earlier reading's assay name)
Protocol: (§3) Opioid-receptor-specific functional activity was assessed in cyclicAMP (cAMP) assays by PDSP.

DOR = molecular target: T5, DOR (Homo sapiens, UniProt P41143); assay: Gi signaling (inhibition of cAMP) in opioid-receptor-expressing HEK cells, DOR; format: cell-based
T5 construct: host or cells: HEK cells expressing the receptor (from the earlier reading's assay name)
Protocol: as §3

KOR = KOR (Homo sapiens, UniProt P41145); assay: cell-based; conditions: HEK cells; means and SEMs of 3–6 assays; read-out: IC50 KOR (κ), cAMP
[4] = test system: male and female CD-1 mice; assay: Tail flick (TF) antinociception; format: in vivo; conditions: for ED50: Mus musculus, sc
Description: as §1
For the dialysate, the mean
Animals: Male and female CD-1 and DBA mice, 21–29 g at testing, were obtained from Charles River (Wilmington, MA) and housed in a 12-h light/dark cycle. All experiments were approved by the Tulane Institutional Animal Care and Use Committee and conducted according to the NIH Guide for the Care and Use of Laboratory Animals. All efforts were made to minimize animal suffering and to reduce the number of animals used.
Tail Flick (TF): CD1 mice were used for this test. The latency to withdraw the tail from a heat source was automatically measured (IITC, Woodland Hills, CA). […]
with a cutoff time of 9 s to prevent tissue damage. Percent Maximum Possible Effect (%MPE) was determined as [(latency-baseline latency)/(9-baseline latency)]*100. […]
(§4) calculated and used as the peak response for determining ED50’s. Initial tests, based on previous studies with ZH853, were 3h in duration.
(§5) Additional subgroups (n = 4-5) were therefore tested for 5h. […] For the time course (Figure 3) […]
(§6) animals were used. Duration of antinociception was assessed using both the area under the curve (AUC) and duration of antinociception, calculated as the time from the first to the last time point greater than or equal to 50% MPE.
(§7) Hot Plate (HP) Test: This test reflects a supraspinally organized complex response, 6 and was used to assess the CNS activation of antinociception by peripherally (s.c.) administered […]
(§8) to reduce test compound requirements. The HP apparatus (IITC, Woodland Hills, CA) was set to 55.5°C, a temperature that elicited a response after 7-9 sec. Three baseline HP latencies to rapidly lift, lick, or shake the hind paws were taken prior to drug injection. Mice were removed from the HP after a maximum of 30 sec. Mice were injected with several analogs (0–5.6 mg/kg s.c.) and tested from 30–300 min after injection.
(%MPE) as described for TF.

male and female DBA mice = assay: animal or person; format: in vivo; conditions: for ED50: Mus musculus, sc
Protocol: as §4, §5, §6, §7, §8
(%MPE) as described for TF. […]
each of those respective times was therefore calculated and used as the peak response for determining ED50’s. These values were used to calculate area under the curve (AUC). The duration of antinociception greater than 50% MPE was calculated as with TF.
Figure S3. Microdialysis and Pharmacokinetics Experiment Scheme.
Scheme depicts catheterization and microdialysis of the rat striatum. […]
endomorphin-1 analog (10 mg/kg; i.v.) ZH853 = ZH853•HCl (10 mg/kg; i.v.); aCSF = artificial cerebrospinal fluid. Created with BioRender.com (Agreement number MH26RXD2YP).
(1 picture or pasted object on this page, not shown here)

[5] = male, Sprague-Dawley, iv, brain dialysate, read-out: Tmax Brain (dialysate) (converted)
[6] = male, Sprague-Dawley, iv, plasma, read-out: Tmax Plasma (converted)
[7] = male, Sprague-Dawley, brain dialysate, iv, 10 mg/kg, brain dialysate, read-out: Half-life Brain (dialysate)
[8] = male, Sprague-Dawley, plasma, iv, 10 mg/kg
[9] = male, Sprague-Dawley, plasma, iv, 10 mg/kg, plasma 0-55 min, n=3
[10] = male, Sprague-Dawley, plasma, iv, 10 mg/kg, plasma, read-out: Half-life Plasma
[11] = tail flick, 10 mg/kg morphine, 1.8 mg/kg A2

T4 sequence (P35372 whole entry): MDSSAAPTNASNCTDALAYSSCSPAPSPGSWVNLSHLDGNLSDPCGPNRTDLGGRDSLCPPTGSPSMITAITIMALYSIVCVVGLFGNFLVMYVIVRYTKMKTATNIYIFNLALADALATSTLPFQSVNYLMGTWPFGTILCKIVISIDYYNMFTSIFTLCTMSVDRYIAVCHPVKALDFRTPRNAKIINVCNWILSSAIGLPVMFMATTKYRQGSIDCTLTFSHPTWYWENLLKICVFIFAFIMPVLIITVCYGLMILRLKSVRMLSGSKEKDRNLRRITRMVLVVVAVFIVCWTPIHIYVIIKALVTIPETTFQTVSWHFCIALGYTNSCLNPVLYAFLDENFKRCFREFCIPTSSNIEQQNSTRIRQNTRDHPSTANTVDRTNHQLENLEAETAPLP
T1 sequence (P35372 whole entry): as above
T2 sequence (P41145 whole entry): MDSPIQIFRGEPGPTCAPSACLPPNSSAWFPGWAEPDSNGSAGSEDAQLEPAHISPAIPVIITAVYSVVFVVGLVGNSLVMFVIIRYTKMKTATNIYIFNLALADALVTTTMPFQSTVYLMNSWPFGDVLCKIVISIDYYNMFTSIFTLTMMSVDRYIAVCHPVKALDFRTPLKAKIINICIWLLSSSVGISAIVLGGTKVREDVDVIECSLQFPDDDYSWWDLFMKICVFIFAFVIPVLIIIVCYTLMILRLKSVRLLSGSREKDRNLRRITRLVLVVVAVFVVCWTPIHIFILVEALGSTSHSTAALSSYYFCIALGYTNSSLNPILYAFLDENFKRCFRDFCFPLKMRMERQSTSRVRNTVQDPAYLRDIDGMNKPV
T3 sequence (P41143 whole entry): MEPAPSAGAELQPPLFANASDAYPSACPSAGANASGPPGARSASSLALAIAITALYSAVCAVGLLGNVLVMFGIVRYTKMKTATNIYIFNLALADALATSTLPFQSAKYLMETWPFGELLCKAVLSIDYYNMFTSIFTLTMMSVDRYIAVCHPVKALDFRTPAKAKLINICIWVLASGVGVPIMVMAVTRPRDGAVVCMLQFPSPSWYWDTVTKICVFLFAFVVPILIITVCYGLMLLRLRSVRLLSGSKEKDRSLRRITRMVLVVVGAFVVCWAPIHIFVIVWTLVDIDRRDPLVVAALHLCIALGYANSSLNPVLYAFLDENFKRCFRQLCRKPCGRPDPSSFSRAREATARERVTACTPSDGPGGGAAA
T5 sequence (P41143 whole entry): as above
KOR, sequence (P41145 whole entry): as the sequence (P41145 whole entry) above

NC(=O)[C@H](CO[C@@H]1O[C@H](CO)[C@@H](O)[C@H](O)[C@H]1O)NC(=O)[C@@H]1CCC(=O)NCCCC[C@@H](NC(=O)[C@@H](N)Cc2ccc(O)cc2)C(=O)N[C@@H](Cc2c[nH]c3ccccc23)C(=O)N[C@@H](Cc2ccccc2)C(=O)N1 [Analog A1]
Tmax [1, 5]: 5 min
Tmax [1, 6]: 1 min
half-life [1, 7]: 16.6 ± 7.9 min
Cmax [1, 8]: 15.7 ± 7.4 µM
AUC [1, 9]: 2.62 µM·h
half-life [1, 10]: 25.9 ± 5.7 min
AUC of plasma, increase over ZH853 ([1]; 0-55 min): ~ 1.5 fold
AUC of estimated CSF, increase over ZH853 ([1]; 0-60 min): ~ 8 fold
Cmax Brain (dialysate) ([1]; brain dialysate, 10 mg/kg): 10.8 ± 6.5 µM and 11 ± 7 µM
AUC Brain (estimated CSF, brain dialysate) ([1]; n=3, 10 mg/kg): 141.0 ± 69.2 µM·min and 141 ± 69 µM·min

NC(=O)[C@H](CO[C@@H]1O[C@H](CO)[C@@H](O)[C@H](O)[C@H]1O)NC(=O)[C@@H]1CCC(=O)NCCCC[C@@H](NC(=O)[C@@H](N)Cc2ccc(O)cc2)C(=O)N[C@@H](Cc2cccc3ccccc23)C(=O)N[C@@H](Cc2ccccc2)C(=O)N1 [Analog A6] (H-Y[dK][1Nal]FES(βGlc)-NH2; lactam 2-5; N-terminus assumed)
Shift (reduction) of MOR affinity by glycosylation (mu opioid receptor (MOR); relative to unglycosylated peptides): ~5 fold

NC(=O)[C@H](CO)NC(=O)[C@@H]1CCC(=O)NCCCC[C@@H](NC(=O)[C@@H](N)Cc2ccc(O)cc2)C(=O)N[C@@H](Cc2c[nH]c3ccccc23)C(=O)N[C@@H](Cc2ccccc2)C(=O)N1 [Analog A8]
Ki [2]: 1260 ± 145 nM

NC(=O)CNC(=O)[C@@H]1CCC(=O)NCCCC[C@@H](NC(=O)[C@@H](N)Cc2ccc(O)cc2)C(=O)N[C@@H](Cc2c[nH]c3ccccc23)C(=O)N[C@@H](Cc2ccccc2)C(=O)N1 [ZH853]
Tmax [1, 5]: 28 min
Tmax [1, 6]: 2 min
half-life [1, 7]: 6.1 ± 0.7 min
Cmax [1, 8]: 16.5 ± 3 µM
AUC [1, 9]: 1.83 µM·h
half-life [1, 10]: 15.9 ± 2.3 min
AUC CSF/Plasma ratio [1]: 0.189
Cmax Brain (dialysate) ([1]; brain dialysate, 10 mg/kg): 1.5 ± 0.2 µM and 2 ± 0.2 µM
Half-life Brain (dialysate) ([1]; brain dialysate, 10 mg/kg): 6 ± 0.7 min
AUC Plasma ([1]; plasma 0-55 min, n=3, 10 mg/kg): 110 ± 37 µM·min
Cmax ([1]; plasma, 10 mg/kg): 17 ± 3 µM
Half-life Plasma ([1]; plasma, 10 mg/kg): 16 ± 2 min
AUC Brain (estimated CSF, brain dialysate) ([1]; n=3, 10 mg/kg): 20.7 ± 7.9 µM·min and 21 ± 8 µM·min
Ki (mu opioid receptor (MOR)): 0.61 ± 0.2 nM
Ki MOR (μ) (mu opioid receptor (MOR); mean ± SEM of 3 replicate assays): subnanomolar
Selectivity δ/μ (binding) (mu opioid receptor (MOR); ratio of Ki): 631
Selectivity κ/μ (binding) (mu opioid receptor (MOR); ratio of Ki): 2353
Ki [3]: 385 ± 61 nM
Ki [2]: 1440 ± 306 nM
IC50 (MOR): 0.07 ± 0.04 nM
Selectivity δ/μ (cAMP) (MOR; ratio of IC50): 5220
Selectivity κ/μ (cAMP) (MOR; ratio of IC50): 31460
IC50 (DOR): 377 ± 166 nM
IC50 (KOR): 2270 ± 273 nM

CN1CC[C@]23c4c5ccc(O)c4O[C@H]2[C@@H](O)C=C[C@H]3[C@H]1C5 [morphine]
ED50 ([4]; female CD-1 mice, %MPE at peak response, read-out: Tail flick ED50 Female): 1.57 ± 0.35 mg/kg
ED50 ([4]; female CD-1 mice, read-out: Tail flick ED50 Female): 4.69 ± 1.08 µmol/kg
ED50 ([4]; male CD-1 mice, read-out: Tail flick ED50 Male): 3.74 ± 0.39 µmol/kg
Time of peak response ([4]; tail flick): 20 to 30 min
Duration of antinociception ([4]; tail flick, 5.6 mg/kg): ~2 h
Antinociception at matched doses [4, 11]: 100 %MPE
Duration of antinociception at matched doses [4, 11]: > 3 h
ED50 (male and female DBA mice; female DBA mice, %MPE at peak response, read-out: Hot plate ED50 Female): 2.33 ± 0.18 mg/kg
ED50 (male and female DBA mice; female DBA mice, read-out: Hot plate ED50 Female): 6.99 ± 0.52 µmol/kg
ED50 (male and female DBA mice; male DBA mice, %MPE at peak response, read-out: Hot plate ED50 Male): 2.82 ± 0.24 mg/kg
ED50 (male and female DBA mice; male DBA mice, read-out: Hot plate ED50 Male): 8.43 ± 0.73 µmol/kg
Time of peak response (male and female DBA mice; hot plate): 30 to 45 min
